Results as given in PubChem BioAssay (NCI).
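Five concentrations, 48 hours, 96-well plates. TGI marks complete inhibition of growth.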

How the values were obtained:
Assay in all cases: growth of human tumour cells (NCI), 48 h
SK-MEL-28 melanoma = test system: SK-MEL-28 melanoma
MDA-N = test system: MDA-N
LOX IMVI melanoma = test system: LOX IMVI melanoma
A549 NSCLC = test system: A549 NSCLC
KM12 colon = test system: KM12 colon
SF-295 CNS = test system: SF-295 CNS
SW-620 colon = test system: SW-620 colon
HCT-116 colon = test system: HCT-116 colon
OVCAR-5 ovarian = test system: OVCAR-5 ovarian
MCF7 breast = test system: MCF7 breast
RPMI-8226 leukemia = test system: RPMI-8226 leukemia
DU-145 prostate = test system: DU-145 prostate
ACHN renal = test system: ACHN renal
M14 melanoma = test system: M14 melanoma
CCRF-CEM leukemia = test system: CCRF-CEM leukemia
SNB-19 CNS = test system: SNB-19 CNS
SNB-75 CNS = test system: SNB-75 CNS
HT29 colon = test system: HT29 colon
TK-10 renal = test system: TK-10 renal
SF-539 CNS = test system: SF-539 CNS
MALME-3M melanoma = test system: MALME-3M melanoma
A498 renal = test system: A498 renal
CAKI-1 renal = test system: CAKI-1 renal
UO-31 renal = test system: UO-31 renal
UACC-257 melanoma = test system: UACC-257 melanoma
IGROV1 ovarian = test system: IGROV1 ovarian
RXF 393 renal = test system: RXF 393 renal
HCT-15 colon = test system: HCT-15 colon
SR leukemia = test system: SR leukemia
OVCAR-4 ovarian = test system: OVCAR-4 ovarian
786-0 renal = test system: 786-0 renal
NCI-H460 lung = test system: NCI-H460 lung
MOLT-4 leukemia = test system: MOLT-4 leukemia
UACC-62 melanoma = test system: UACC-62 melanoma
SF-268 CNS = test system: SF-268 CNS
HS 578T breast = test system: HS 578T breast
HCC-2998 colon = test system: HCC-2998 colon
NCI-H522 lung = test system: NCI-H522 lung
NCI/ADR-RES ovarian = test system: NCI/ADR-RES ovarian
COLO 205 colon = test system: COLO 205 colon
OVCAR-3 ovarian = test system: OVCAR-3 ovarian
HOP-92 NSCLC = test system: HOP-92 NSCLC
HL-60(TB) leukemia = test system: HL-60(TB) leukemia
K-562 leukemia = test system: K-562 leukemia
EKVX NSCLC = test system: EKVX NSCLC
BT-549 breast = test system: BT-549 breast
SK-OV-3 ovarian = test system: SK-OV-3 ovarian
OVCAR-8 ovarian = test system: OVCAR-8 ovarian
NCI-H23 lung = test system: NCI-H23 lung
SN12C renal = test system: SN12C renal
HOP-62 NSCLC = test system: HOP-62 NSCLC
SK-MEL-5 melanoma = test system: SK-MEL-5 melanoma
MDA-MB-435 = test system: MDA-MB-435
MDA-MB-231 breast = test system: MDA-MB-231 breast
U251 CNS = test system: U251 CNS
PC-3 prostate = test system: PC-3 prostate
SK-MEL-2 melanoma = test system: SK-MEL-2 melanoma
NCI-H226 lung = test system: NCI-H226 lung

Measured: TGI

CCOC(=O)/C(=C\NC(C)(C)CO)c1nc2ccccc2[nH]1
11.7 µM: UO-31 renal
97.5 µM: ACHN renal
97.7 µM: HS 578T breast
not listed: MDA-MB-231 breast | U251 CNS | PC-3 prostate | SK-MEL-2 melanoma | NCI-H226 lung
> 100 µM: all other assays above

CS(=O)(=O)O[C@H]1[C@H](O)c2ccccc2[C@@H]1N=[N+]=[N-]
not listed: TK-10 renal | SF-268 CNS | HS 578T breast
> 100 µM: all other assays above
